This is an account of results in PMC8279415, “Targeting Acute Myelogenous Leukemia Using Potent Human Dihydroorotate Dehydrogenase Inhibitors Based on the 2-Hydroxypyrazolo[1,5-a]pyridine Scaffold: SAR of the Biphenyl Moiety” (Journal of Medicinal Chemistry, 2021).

Data set [1] in a line: In vitro metabolic profile in rat-liver microsomes. The format is in vitro ADME. The conditions noted are these: for metabolites identified in sample C: active rat-liver microsomes and regenerating system, HPLC-HRMS. As to the method: SyGMa (systematic generation of potential metabolites) software, a tool that lists predicted metabolites with associated empirical probability scores, was used to identify putative metabolites, which were then investigated by analyzing samples with liquid chromatography coupled to high-resolution mass spectrometry (HPLC–HRMS). […] The full-scan MS data acquired for all of the samples were analyzed to find the m/z values of the predicted molecular structures. In order to exclude interfering signals, the results obtained were compared to blank samples and common background peaks were not considered.
Rat-liver microsomes (Sprague-Dawley, male, Sigma-Aldrich; 20 mg/mL protein concentration) were incubated with the candidate compound solution (5 μM final concentration, with 1% DMSO) and Tris buffer (0.1 M, pH = 7.4). The regenerating system, which slowly generated coenzyme units over the incubation time, leading to a better reproduction of in vivo behavior, was composed of MgCl2 (3.3 mM), NADP^+ (1.3 mM), Glu6P (3.5 mM), and Glu6P dehydrogenase (0.5 U/mL).
The incubation time started with the addition of the microsomes suspension (0.5 mg/mL).
Metabolic reactions were stopped by adding 100 μL of cooled acetonitrile to the 100 μL sample of the incubation mixture. Samples were centrifuged to provoke protein precipitation, and the supernatants were immediately stocked at −80 °C, until analysis, to prevent the potential degradation of unstable products.
The products of in vitro metabolism were identified using a high-resolution mass spectrometer (Q-Exactive Orbitrap, Thermo Scientific) coupled to an HPLC instrument (1200 system Agilent). All analytes were separated on an Ascentis C18 column (150 mm × 2.1 mm, 5 μm particle size) maintained at 35 °C. The elution mixture was composed of solvent A (0.1% formic acid in water for positive ionization mode and 0.05% acetic acid for negative ionization mode) and solvent B (acetonitrile). […] MS2-DIA scans were acquired at R = 17 500 and with variable collision energies ranging from 30 to 45, depending on the m/z of the parent ion.

Another data set has as its target T1, recombinant hDHODH (Homo sapiens, UniProt Q02127).
T1 construct: made in house; host or cells: E. coli BL21DE3 PyrD
The data set can be described thus: hDHODH inhibition assay (DCIP reduction). It counts as biochemical. As to the method:
BL21DE3 PyrD E. coli cells were transformed using the plasmid construct pFN2A–hDHODH (kindly given by Department of Drug Science and Technology, University of Turin, Turin, Italy). The vector produces hDHODH as an N-terminal GST-fusion protein. Cells were grown at 37 °C in LB medium supplemented with 0.1 mM flavin mononucleotide (Cayman Chemical). […] Triton X-100 was added to the lysate, to a final concentration of 1%, before centrifugation at 14 000g for 40 min at 4 °C. The clarified supernatant was incubated with DNase I for 30 min at room temperature, supplemented with 2 mM dithiothreitol (DTT), and filtered through a 0.45 μm syringe filter as previously described by Sainas et al.[18] The GST-fused enzyme was purified from the bacterial lysate using affinity chromatography on immobilized glutathione-Sepharose columns (GE- […]). The GST tag was not cleaved for further analysis. All the reagents used in the protein expression and purification were supplied by Merck/Sigma-Aldrich if not otherwise specified.
The enzymatic inhibition assay was optimized for being performed on a 96-well plate and to achieve higher throughput. For each well of the plate a total volume of 200 μL was used: 5 μL of purified GST-hDHODH; 60 μL of 2,6-dichloroindophenol (DCIP) 50 μM; 20 μL of coenzyme Q10 enzyme 100 μM; 20 μL of dihydroorotate (DHO) 500 μM; Tris-HCl, pH 8, up to a final volume of 200 μL. Inhibitory activity was assessed by monitoring the reduction of DCIP, which is associated with the oxidation of dihydroorotate as catalyzed by the DHODH enzyme. The enzyme was preincubated for 5 min at 37 °C in Tris-HCl, pH 8, with coenzyme Q10, with DCIP (50 μM), and with the compounds to be tested used at different concentrations (final DMSO concentration 0.1% v/v). The reaction was initiated by the addition of DHO (500 μM), and the absorbance kinetic reduction was monitored at λ = 650 nm using a multiplate reader (Tecan, M1000Pro). In order to assess the minimum and maximum absorbance values of the enzymatic reaction, a Min control value was obtained by measuring the absorbance without DHO. Similarly, a Max value was obtained by measuring the absorbance with DHO but no inhibitor. A blank reduction calculation was also performed by measuring the absorbance values using 180 μL of Tris-HCl and 20 μL of coenzyme Q10. The instrument was set to read the absorbance values every 10 s for a total read time of 10 min at 37 °C. […] Values are the mean ± SE of three independent experiments.

Data set [2] is described as follows: LogD7.4, shake-flask n-octanol/PBS. The following applies: for logD at 20 min / logD: pH 7.4; for logD: n-octanol/PBS; for LogD^7.4 ± SD: n-octanol/PBS pH 7.4, shake-flask; for Log D7.4 ± SD (supplement CSV): supplementary CSV.
Protocol: The partition coefficients between n-octanol and PBS at pH 7.4 (LogD^7.4) were obtained using the shake-flask technique at room temperature. In the shake-flask experiments, 50 mM phosphate buffered saline, pH 7.4, was used as the aqueous phase. The organic (n-octanol) and aqueous phases were mutually saturated by shaking for 4 h. The compounds were solubilized in the buffered aqueous phase at the highest concentration compatible with solubility, and appropriate amounts of n-octanol were added. The two phases were shaken for about 20 min, by which time the partitioning equilibrium of solutes had been reached, and then centrifuged (10 000 rpm, 10 min). The concentration of the solutes was measured in the aqueous phase using a UV spectrophotometer (Varian Cary 50BIO); absorbance values (recorded for each compound at the wavelength of maximum absorption) were interpolated in calibration curves obtained using standard solutions of the compounds (r^2 > 0.99). Each log D value is an average of at least six measurements.
Data set [3] in a line: Solubility assay at pH 7.4 in PBS. It counts as physicochemical. The conditions noted are these: for solubility in PBS / solubility at 24 h: pH 7.4, 25 °C, 24 h, LOD 6 μM; for solubility at 24 h: phosphate buffered saline. As for the experimental part: These suspensions were filtered through a PTFE 0.45 μm filter (VWR), and the solutions were chromatographically analyzed using a PerkinElmer ultrahigh performance liquid chromatography (UHPLC) instrument, equipped with a reverse-phase (RP) C18 Phenomenex column (2.1 mm × 100 mm, 1.7 μm particle size). […] The flow rate was 0.5 mL/min. Standard injection volumes were either 2 or 4 μL for poorly soluble compounds. The detection system was a PerkinElmer diode array detector. The wavelengths that were monitored for each compound were defined according to the compound’s own absorption spectrum. Solubility, expressed as μM concentration of the saturated solution, was calculated via interpolation with external calibration curves that were obtained with solutions of each compound in acetonitrile.

Data set [4] deals with THP1 cells. The data set can be described thus: Fixed-concentration screening of differentiation (CD14) and apoptosis (annexin V) in THP1, with or without uridine. The format is cell-based, human. As for the experimental part: DMSO (dimethyl sulfoxide) acts as the negative control group as it was used to solubilize hDHODH inhibitors. ∗, ∗∗, ∗∗∗ represent the statistical significance for apoptosis (respectively p < 0.05, < 0.01, and <0.001). #, ##, and ### represent the statistical significance for differentiation (respectively p < 0.05, <0.01, and <0.001). The statistical significance is calculated by comparing the compounds to DMSO.
The statistical significance is calculated by comparing the compounds to DMSO.

The test system of data set [5] is U937 cells. The data set can be described thus: Annexin V apoptosis assay in U937. The following applies: EC50 ratio vs brequinar.
Another data set deals with Jurkat cells. The data set can be described thus: CFSE-based cytotoxic activity assay. The following applies: concentration inducing cytotoxicity ≥30%, 3 days.
Data set [6] relates to U937 cells. The data set can be described thus: Differentiation assay (CD11b expression) in U937. The conditions noted are these: EC50 ratio vs brequinar.
Data set [7] relates to THP1 cells. The data set can be described thus: Annexin V apoptosis assay in THP1. The following applies: EC50 ratio vs brequinar.
Where [8] appears, read: mean ± SE of three independent experiments, read-out: hDHODH, IC50 ± SE.
The mark [9] stands for this setting: supplementary CSV, values differ from Table 2, read-out: hDHODH IC50 ± SE (supplement CSV).

Converted amounts (≈) assume the structure as drawn. “Also recorded” adds a separate entry of the source. Like-named read-outs stand apart in the source and are kept apart here. Bounds are passed on as bounds.

T1 sequence (Q02127 whole entry): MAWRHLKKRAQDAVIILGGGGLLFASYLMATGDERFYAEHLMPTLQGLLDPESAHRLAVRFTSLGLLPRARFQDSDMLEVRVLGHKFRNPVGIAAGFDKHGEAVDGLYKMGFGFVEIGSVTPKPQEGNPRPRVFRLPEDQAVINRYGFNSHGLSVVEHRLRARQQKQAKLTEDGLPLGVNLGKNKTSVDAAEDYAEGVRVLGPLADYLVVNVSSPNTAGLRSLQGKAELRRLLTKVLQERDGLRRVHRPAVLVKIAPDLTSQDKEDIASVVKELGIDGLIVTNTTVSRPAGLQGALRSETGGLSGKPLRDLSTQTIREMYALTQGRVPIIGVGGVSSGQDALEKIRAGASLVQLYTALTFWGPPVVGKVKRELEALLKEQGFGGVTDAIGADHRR

As for `O=C(Nc1c(F)c(F)c(-c2ccccc2)c(F)c1F)c1c(O)nn2ccccc12` [Compound 1], the “metabolites identified in sample C” value in [1] was “monohydroxylated, dihydroxylated, and methoxylated metabolites”.
With `Cc1cccc2c(C(=O)Nc3c(F)c(F)c(-c4ccccc4)c(F)c3F)c(O)nn12` [Compound 2], the IC50 on recombinant hDHODH (setting [8]) was 4.3 ± 0.5 nM.
`O=C(Nc1c(F)c(F)c(-c2ccccc2)c(F)c1F)c1c(O)nn2c(Cl)cccc12` [Compound 4, 7-Chloro-2-hydroxy-N-(2,3,5,6-tetrafluoro-[1,1′-biphenyl]-4-yl)pyrazolo[1,5-a]pyridine-3-carboxamide] registered a logD at 20 min in data set [2] of 2.81 ± 0.13. Further, the IC50 on recombinant hDHODH (setting [8]) was 3.4 ± 0.5 nM. Besides, the “solubility in PBS” value in data set [3] is recorded as “<LOD”.
For `O=C(Nc1c(F)c(F)c(-c2ccccc2)c(F)c1F)c1c(O)nn2c1CCCC2` [Compound 5, 2-Hydroxy-N-(2,3,5,6-tetrafluoro-[1,1′-biphenyl]-4-yl)-4,5,6,7-tetrahydropyrazolo[1,5-a]pyridine-3-carboxamide], in data set [2], the logD at 20 min came to 2.36 ± 0.02. Moreover, the IC50 at recombinant hDHODH (setting [8]) worked out at 5.8 ± 0.4 nM. For the same compound, the “solubility in PBS” value in [3] is reported as “<LOD”.
For the compound `O=C(Nc1c(F)c(F)c(N2CCOCC2)c(F)c1F)c1c(O)nn2ccccc12` [Compound 6, 2-Hydroxy-N-(2,3,5,6-tetrafluoro-4-morpholinophenyl)pyrazolo[1,5-a]pyridine-3-carboxamide], the logD in [2] was 0.66 ± 0.08. In addition, the “activity in cells (differentiation and apoptosis)” value in the data set with THP1 cells [4] (THP1, 1 μM) is “basically inactive”. Also, the IC50 at recombinant hDHODH (setting [8]) came to 90.9 ± 13.1 nM. Moreover, the concentration in solution in data set [3] (solubility at 24 h) came to 438 µM (≈ 180 µg/mL).
As for `O=C(Nc1c(F)c(F)c(-c2cccs2)c(F)c1F)c1c(O)nn2ccccc12` [Compound 7, 2-Hydroxy-N-(2,3,5,6-tetrafluoro-4-(thiophen-2-yl)phenyl)pyrazolo[1,5-a]pyridine-3-carboxamide], the IC50 was 1.35 ± 0.45 nM on recombinant hDHODH (setting [8]) and 1.37 ± 0.1 nM at recombinant hDHODH (setting [9]).
In [2], `O=C(Nc1c(F)c(F)c(-c2ccnc(C(F)(F)F)c2)c(F)c1F)c1c(O)nn2ccccc12` [Compound 9, 2-Hydroxy-N-(2,3,5,6-tetrafluoro-4-(2-(trifluoromethyl)pyridin-4-yl)phenyl)pyrazolo[1,5-a]pyridine-3-carboxamide] had a logD of 1.84 ± 0.06. Besides, the “activity in cells (differentiation and apoptosis)” value in the data set with THP1 cells [4] (THP1, 1 μM) was “basically inactive”. In addition, the IC50 at recombinant hDHODH (setting [8]) was 150 ± 15 nM. Besides, in data set [3], the “solubility in PBS relative to 1” value stood at 1.5 times and the solubility at 24 h was determined as 20.2 µM (≈ 9.5 µg/mL).
On to `O=C(Nc1c(F)c(F)c(-c2ccc(F)cc2)c(F)c1F)c1c(O)nn2ccccc12` [Compound 10, 2-Hydroxy-N-(2,3,4′,5,6-pentafluoro-[1,1′-biphenyl]-4-yl)pyrazolo[1,5-a]pyridine-3-carboxamide], for which, in [2], the “LogD^7.4 ± SD” value is “insoluble” and the “Log D7.4 ± SD (supplement CSV)” value is recorded as “Insoluble”. Moreover, at recombinant hDHODH (setting [8]), the IC50 amounted to 17.7 ± 3.3 nM. Moreover, on recombinant hDHODH (setting [9]), the IC50 is 8.32 ± 1.36 nM. Further, in [3], the “solubility in PBS” value is recorded as “<LOD” and the solubility at 24 h is below 6 µM.
For `O=C(Nc1c(F)c(F)c(-c2ccc(C(F)(F)F)cc2)c(F)c1F)c1c(O)nn2ccccc12` [Compound 12, 2-Hydroxy-N-(2,3,5,6-tetrafluoro-4′-(trifluoromethyl)-[1,1′-biphenyl]-4-yl)pyrazolo[1,5-a]pyridine-3-carboxamide], in data set [2], the “LogD^7.4 ± SD” value is “insoluble” and the “Log D7.4 ± SD (supplement CSV)” value is reported as “Insoluble”. Further, on recombinant hDHODH (setting [8]), the IC50 amounted to 71.8 ± 9.42 nM. On recombinant hDHODH (setting [9]), the IC50 is 29.6 ± 3.2 nM. In [3], the “solubility in PBS” value is “<LOD” and the solubility at 24 h is below 6 µM.
Take `O=C(Nc1c(F)c(F)c(-c2cccc(O)c2)c(F)c1F)c1c(O)nn2ccccc12` [Compound 14, 2-Hydroxy-N-(2,3,5,6-tetrafluoro-3′-hydroxy-[1,1′-biphenyl]-4-yl)pyrazolo[1,5-a]pyridine-3-carboxamide]: in [2], the logD amounted to 1.82 ± 0.09. The “activity in cells (differentiation and apoptosis)” value with THP1 cells [4] (THP1, 1 μM) is “basically inactive”. The IC50 at recombinant hDHODH (setting [8]) is 2.78 ± 0.32 nM; at recombinant hDHODH (setting [9]) it was 2 ± 0.67 nM. Further, in data set [3], the “solubility in PBS relative to 1” value is given as “around 5 times”. The amount in solution in [3] (solubility at 24 h) came to 55.3 µM (≈ 23.1 µg/mL).
In [2], `CCCOc1cccc(-c2c(F)c(F)c(NC(=O)c3c(O)nn4ccccc34)c(F)c2F)c1` [Compound 17, 2-Hydroxy-N-(2,3,5,6-tetrafluoro-3′-propoxy-[1,1′-biphenyl]-4-yl)pyrazolo[1,5-a]pyridine-3-carboxamide] had a logD of 3.28 ± 0.12. The “activity in cells (differentiation and apoptosis)” value in the data set on THP1 cells [4] (THP1, 0.1 μM) is on record as “highly active”. The “metabolites identified in sample C” value in data set [1] was “monohydroxylated and dealkylated metabolites”. Moreover, the “time after which parent compound was no longer present” value in [1] (rat-liver microsomes with regenerating system) was at most 30 min. The “metabolic stability” value in data set [1] (rat-liver microsomes, 2 h) is “fast metabolism; also recorded: weaker in vitro stability”. In addition, the “efficacy in comparison with brequinar, apoptosis U937” value in the data set on U937 cells [5] was 19 times. The “cytoxicity Jurkat (effect ≥30% ± SD)” value in the data set on Jurkat cells is above 100 µM. In addition, in the data set on U937 cells [6], the “efficacy in comparison with brequinar, differentiation U937” value is on record as 41 times. For the same compound, the “superiority to brequinar, apoptosis THP1” value with THP1 cells [7] came out at 13 times.
